Experimental findings from PubChem BioAssay (NCI) are described below.

Test systems include T-47D breast; OVCAR-3 ovarian; DU-145 prostate; HT29 colon; MDA-MB-435; HCC-2998 colon; HOP-62 NSCLC; PC-3 prostate; SK-MEL-28 melanoma; RPMI-8226 leukemia.
Assay in all cases: inhibition of tumour cell growth, NCI panel, 48 h

“And” between values parts separate entries of the source, which are not always exact repeats. Identical values can stand only once.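 Where inhibition never reached the appropriate level, the endpoint shown equals the highest concentration tested. Otherwise, values were interpolated linearly from a five-concentration, 48-hour dose response in 96-well plates. GI50 marks 50% less growth. At the TGI there is no net growth.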 Some results are limits rather than exact numbers.

For the compound `COc1cc2c3c(n(CCCN)c(=O)c2cc1OC)-c1ccc([N+](=O)[O-])cc1C3=O`, the GI50 is 3.86 µM with T-47D breast; 16.5 µM with OVCAR-3 ovarian; 2.11 µM in the assay on DU-145 prostate; 5.07 µM in the assay with HT29 colon; 15.9 µM with MDA-MB-435; 2.29 µM with HCC-2998 colon. Further, the GI50 with HOP-62 NSCLC was 0.613 µM; in the assay with PC-3 prostate, 7.63 µM; in the assay on SK-MEL-28 melanoma, 17.8 µM; in the assay with RPMI-8226 leukemia, 1.75 µM. The TGI worked out at 20.2 µM in the assay with T-47D breast; 37.5 µM in the assay with OVCAR-3 ovarian; 10.6 µM in the assay on DU-145 prostate; 21.4 µM in the assay on HT29 colon; 37.5 µM in the assay on MDA-MB-435; 13.6 µM with HCC-2998 colon. Moreover, the TGI in the assay on HOP-62 NSCLC was 2.26 µM; in the assay with PC-3 prostate, 22.9 µM; with SK-MEL-28 melanoma, 34.3 µM; in the assay with RPMI-8226 leukemia, 4.91 µM.
Regarding `COc1ccc(C(=O)Cn2c(C(=O)c3ccccc3)nc3ccccc32)cc1`, the GI50 is 3.87 µM in the assay with T-47D breast; 2.59 µM with OVCAR-3 ovarian; 4.61 µM in the assay on DU-145 prostate; 1.25 µM with HT29 colon; 0.304 µM in the assay on MDA-MB-435; 3.2 µM with HCC-2998 colon. For the same compound, the GI50 with HOP-62 NSCLC was 6.57 µM; in the assay with PC-3 prostate, 4.56 µM; in the assay on SK-MEL-28 melanoma, 3.91 µM; in the assay with RPMI-8226 leukemia it was 3.05 µM. The TGI in the assay with T-47D breast is greater than 100 µM; in the assay on OVCAR-3 ovarian it was greater than 21.6 µM; in the assay with DU-145 prostate, greater than 100 µM; in the assay with HT29 colon, greater than 100 µM; with MDA-MB-435, 1.87 µM; in the assay on HCC-2998 colon it was greater than 100 µM. The TGI in the assay with HOP-62 NSCLC was greater than 100 µM; in the assay with PC-3 prostate, greater than 100 µM; with SK-MEL-28 melanoma, greater than 100 µM; in the assay with RPMI-8226 leukemia, greater than 28.8 µM.
`O=C1CCc2c(sc3[nH]c(=S)n(-c4cc(C(F)(F)F)cc(C(F)(F)F)c4)c(=O)c23)C1`: the GI50 was 0.385 µM in the assay with T-47D breast; 0.358 µM in the assay on OVCAR-3 ovarian; 0.775 µM with DU-145 prostate; 0.939 µM in the assay on HT29 colon; 1.22 µM in the assay on MDA-MB-435; 0.509 µM in the assay with HCC-2998 colon. The GI50 is 0.553 µM in the assay on HOP-62 NSCLC, 0.307 µM with PC-3 prostate, 0.459 µM in the assay on SK-MEL-28 melanoma and 0.411 µM in the assay on RPMI-8226 leukemia. In addition, the TGI in the assay with T-47D breast was 2.46 µM; with OVCAR-3 ovarian, 1.49 µM; in the assay with DU-145 prostate, greater than 40 µM; in the assay on HT29 colon it was greater than 33.6 µM; with MDA-MB-435 it was 5.45 µM; with HCC-2998 colon it was 1.91 µM. Also, the TGI with HOP-62 NSCLC is 11.8 µM; with PC-3 prostate, 2.35 µM; in the assay on SK-MEL-28 melanoma, 3.7 µM; in the assay with RPMI-8226 leukemia, 3.03 µM.
For the compound `C1=C(c2ccccc2)C(N2CCOCC2)Oc2ccccc21` (stereo not drawn), the TGI with T-47D breast, with OVCAR-3 ovarian, in the assay on DU-145 prostate, with HT29 colon, in the assay on MDA-MB-435 and in the assay with HCC-2998 colon was greater than 100 µM throughout. For the same compound, the TGI with HOP-62 NSCLC, in the assay with PC-3 prostate, in the assay with SK-MEL-28 melanoma and with RPMI-8226 leukemia was greater than 100 µM each time.
Consider `OCCCCC#Cc1ccccc1C#Cc1ccc(O)cc1`, for which the GI50 is 19.7 µM in the assay on T-47D breast; 14.8 µM in the assay on OVCAR-3 ovarian; 16.8 µM in the assay on DU-145 prostate; 9.41 µM in the assay with HT29 colon; 16.1 µM with MDA-MB-435; 15.4 µM in the assay on HCC-2998 colon. Moreover, the GI50 in the assay with HOP-62 NSCLC is 21.9 µM; in the assay with PC-3 prostate, 17.2 µM; in the assay with SK-MEL-28 melanoma, 14.2 µM; in the assay on RPMI-8226 leukemia, 19.1 µM. Moreover, the TGI in the assay with T-47D breast was determined as 45.2 µM; in the assay on OVCAR-3 ovarian, 30.4 µM; in the assay on DU-145 prostate, 33.6 µM; in the assay on HT29 colon, 22.2 µM; in the assay with MDA-MB-435 it was 31 µM; with HCC-2998 colon, 30.4 µM. Further, the TGI with HOP-62 NSCLC came out at 38.1 µM; with PC-3 prostate it was 35.2 µM; with SK-MEL-28 melanoma it was 27.8 µM; in the assay on RPMI-8226 leukemia, 48.9 µM.
Regarding `O=C1NC(N/N=C\C(O)C(O)C(O)C(O)CO)=N/C1=C/c1ccccc1` (stereo not drawn), the TGI was > 100 µM and 26.7 µM in the assay with T-47D breast; > 100 µM and 37.7 µM in the assay on OVCAR-3 ovarian; > 100 µM and 48.9 µM in the assay with DU-145 prostate; > 100 µM and 44.5 µM in the assay with HT29 colon; > 100 µM and 34.9 µM in the assay on MDA-MB-435; > 100 µM and 41.7 µM in the assay with HCC-2998 colon. For the same compound, the TGI in the assay with HOP-62 NSCLC is > 100 µM and 36.2 µM; in the assay on PC-3 prostate it was > 100 µM and 28 µM; in the assay with SK-MEL-28 melanoma it was greater than 100 µM; in the assay on RPMI-8226 leukemia it was > 100 µM and 45.2 µM. The GI50 with OVCAR-3 ovarian is 97.1 µM and 20.5 µM and > 100 µM; in the assay with DU-145 prostate it was > 100 µM and 17.6 µM; in the assay with HT29 colon it was > 100 µM and 23.2 µM; in the assay on MDA-MB-435, 85.7 µM and 15.7 µM and > 100 µM; in the assay on HCC-2998 colon, > 100 µM and 13.5 µM; in the assay with HOP-62 NSCLC, > 100 µM and 19.4 µM. The GI50 was 47.5 µM and 14.5 µM and > 100 µM in the assay with PC-3 prostate; 37.3 µM and 24 µM and > 100 µM with SK-MEL-28 melanoma; 58.8 µM and 19.6 µM and > 100 µM in the assay on RPMI-8226 leukemia.
Regarding `Cc1ccc(/C=C/c2c(C(=O)/C=C/c3ccccc3)c(C)nc3ccccc23)cc1`, the GI50 in the assay with T-47D breast is 1.28 µM; in the assay with OVCAR-3 ovarian, 1.51 µM; in the assay on DU-145 prostate it was 1.65 µM; with HT29 colon, 1.63 µM; with MDA-MB-435, 2.1 µM; in the assay with HCC-2998 colon, 1.71 µM. The GI50 in the assay on HOP-62 NSCLC was 1.74 µM; in the assay with PC-3 prostate, 1.84 µM; with SK-MEL-28 melanoma, 1.77 µM; in the assay with RPMI-8226 leukemia it was 1.54 µM. Besides, the TGI came out at 4.32 µM in the assay on T-47D breast; 2.88 µM with OVCAR-3 ovarian; 3.15 µM with DU-145 prostate; 9.5 µM in the assay on HT29 colon; 5.59 µM in the assay with MDA-MB-435; 3.35 µM with HCC-2998 colon. Also, the TGI came to 3.49 µM in the assay with HOP-62 NSCLC, 5.05 µM with PC-3 prostate, 3.27 µM with SK-MEL-28 melanoma and 5.13 µM in the assay with RPMI-8226 leukemia.
Regarding `O=C(O)C[C@H](O)C[C@H](O)/C=C/c1c(C2CC2)nc2ccccc2c1-c1ccc(F)cc1`, the TGI with T-47D breast, with OVCAR-3 ovarian, with DU-145 prostate, in the assay on HT29 colon, in the assay on MDA-MB-435 and in the assay with HCC-2998 colon was greater than 100 µM throughout. For the same compound, the TGI with HOP-62 NSCLC, in the assay with PC-3 prostate, in the assay on SK-MEL-28 melanoma and in the assay with RPMI-8226 leukemia was greater than 100 µM in each case. The GI50 in the assay with OVCAR-3 ovarian was 16.8 µM and 12.1 µM; in the assay with DU-145 prostate, > 100 µM and 31 µM; with HT29 colon, 62.2 µM and 8.24 µM; in the assay with MDA-MB-435, 14.6 µM and 6.04 µM; in the assay on HCC-2998 colon, 42 µM and 49.9 µM; in the assay with HOP-62 NSCLC it was 15 µM and 6.22 µM. In addition, the GI50 in the assay on PC-3 prostate is 0.508 µM and 0.423 µM; in the assay on SK-MEL-28 melanoma, 27.4 µM and 7.7 µM; in the assay with RPMI-8226 leukemia it was 25 µM and 10.4 µM.
